Tests used:
[1] = Rate of disintegration of animal waste: time to a uniformly distributed suspension under magnetic stirring; design: species or system dog; conditions: about 5 g waste, 90.0 g water, stirring about 90 rpm; water alone 16 minutes
Description: 1. The selected amount of feces was weighed out with the accuracy of 10 mg. All the samples had the same mass within 200 milligrams.
2. […]
3. The mixture was mixed at specific rate (about 90 rpm) using a magnetic bar inside the solution and a magnetic stirrer. The amount of time necessary to produce a uniformly distributed suspension was measured.

[2] = Rate of malodor disappearance from dog waste stirred at 40° C.; conditions: oxidizing agent added to the formulation or as aqueous solution
Description: 1. The specific amount of feces was weighed (about 4.0 g; accuracy of 1 mg) out and transferred to the 200 mL beaker.
2. 100.0 g of aqueous solution containing either no additives or the selected ones weighed at the same balance (accuracy of 1 mg) was added to the beaker.
3. The sample was located on a hot plate and stirred magnetically at 40° C. in the fume hood.
4. The samples were checked for the released smell every few minutes.
50.0 mL of deionized water containing selected quantities of detergent, pH affecting agent and protease (same concentration as in the formulation divided by 50 since this is the planned dilution with water), pH affecting agent and protease • a. no additives • b. Cola Lipid (0.20 g); protease (Alcalase 3.0T, 0.008 g), sodium perborate tetrahydrate (0.012 g), citric acid (to adjust pH to about 3.0), • c. Cola Lipid (0.20 g); protease (Alcalase 3.0T, 0.008 g), sodium perborate tetrahydrate (0.012 g), sodium hydrogen carbonate (to adjust pH to about 10.0), • d. Cola Lipid (0.20 g); protease (Alcalase 3.0T, 0.008 g), 5% hydrogen peroxide (0.100 g), citric acid (to adjust pH to about 3.0) was added to 3.00 g of the dog waste. The mixtures were located in the fume hood, heated on the hot plate to 40° C. and stirred magnetically. […] The malodor of the sample “a” disappeared after about 30 minutes.

[3] = test system: animal waste bio-burden; experiment: Lowering of animal waste bio-burden: dog waste homogenised with additives, serially diluted, plated on agar, CFUs counted; format: cell-based
Description: 1. A specific amount of a dog waste weighed with the accuracy of 1 mg (usually between 3 and 7 g) was transferred into the sterilized homogenizer. In a set of experiments performed on a given day the mass of all the samples were the same within 20.0 mg.
2. All the required additives were weighed out using the same balance and introduced into a specific amount of deionized, freshly boiled (but cooled to room temperature) water (usually between 50.0 g and 100.0 g) in the sterilized Erlenmeyer flask.
3. Next, the aqueous solution of additives was transformed into the homogenizer.
4. The mixture was mixed at low (18,000 RPM) for a specific amount of time (usually 30 seconds).
5. The resulting suspension was transferred to the sterilized Erlenmeyer flask and gradually diluted 10 times in several subsequent dilution steps. Initially, 5.0 mL of the non-diluted solution was added to 45.0 mL of deionized, freshly boiled water. The Eppendorf pipettes were used for further dilutions and in each case […] of the previous sample after vortex was added to 0.900 mL of deionized, freshly boiled water in a sterile vial. Usually, 6 or 7 dilutions were performed. In every set of experiments one sample consisted of the feces and water only. All the results were measured against this sample.
6. […]
8. Next, each sample was counted to determine the number of CFUs (colony forming units).

Row | Compound | Time until feces disintegration [1] [min] | reduction of malodor of feces, in words [2] | other results
1 | CCCCCCCCCCCCOS(=O)(=O)[O-].[Na+] [Sodium dodecyl sulfate, sodium dodecyl sulfate] | 1 | – | –
2 | CCCCCCCC/C=C\CCCCCCCC(=O)OCCOCC(OCCO)C1OCC(OCCO)C1OCCO (stereo not shown) [Tween 80, polysorbate 80] | 2 | – | –
3 | O=C(OO)c1cccc(Cl)c1 [metachloroperbenzoic acid (MCPBA), metachloroperbenzoic acid] | – | destroy the malodor very effectively | –
4 | O.O.O.O=BO[O-].[Na+] [sodium perborate trihydrate] | – | significantly reduced malodours | –
5 | cocamidopropyl PG-dimonium chloride phosphate [Cola lipid] | 1 | – | effect of added citric acid on antimicrobial activity ([3]; formulation of Table 3 against the same formulation without citric acid): significantly enhanced the antimicrobial activity; antimicrobial activity, comparison in words ([3]; treating animal waste): significantly better antimicrobial activity
6 | octoxynol [Triton X100] | 4 | – | –
7 | sodium perborate | – | destroy the malodor very effectively | reduction of malodor of feces, in words ([2]; listed as Sodium perborate): effectively minimizes the malodor of feces
